# Test results taken from ChEMBL document CHEMBL4402572, “Development of Benzenesulfonamide Derivatives as Potent Glutathione Transferase Omega-1 Inhibitors” (J Med Chem, 2020).
# Tests used:
# [1] = biological target: T1, Glutathione S-transferase omega-1 (Homo sapiens, UniProt P78417); assay: Inhibition of recombinant GSTO1-1 (unknown origin) expressed in Escherichia coli using S-(4-nitrophenacyl)glutathione as substrate preincubated for 2 mins followed by substrate addition by 4-NPG assay
# T1 sequence (P78417 whole entry): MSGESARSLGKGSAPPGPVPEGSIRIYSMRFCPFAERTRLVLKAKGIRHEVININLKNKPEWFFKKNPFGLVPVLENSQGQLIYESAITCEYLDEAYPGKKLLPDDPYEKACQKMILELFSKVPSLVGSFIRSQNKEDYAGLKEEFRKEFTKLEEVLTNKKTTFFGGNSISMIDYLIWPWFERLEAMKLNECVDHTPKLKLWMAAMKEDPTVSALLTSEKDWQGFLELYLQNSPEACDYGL
# [2] = Drug concentration in Swiss mouse plasma at 30 mg/kg, ip measured up to 4 hrs post dose by UPLC-MS analysis; format: ADME, organism-based
# [3] = biological target: T1, Glutathione S-transferase omega-1; assay: Inhibition of recombinant GSTO1-1 (unknown origin) expressed in Escherichia coli assessed as inhibitor constant using S-(4-nitrophenacyl)glutathione as substrate preincubated for 1 to 6 mins followed by substrate addition by spectrophotmetric analysis
# [4] = biological target: T2, Glutathione S-transferase omega-1 (Mus musculus) (UniProt O09131); assay: Inhibition of GSTO1-1 in mouse bone marrow derived macrophage cells assessed as reduction in LPS-induced IL-1beta release by measuring IL1 beta level at 5 uM pretreated with LPS for 3 hrs followed by compound addition and measured after 1 hr by ELISA relative to control; set-up: scale not given: the % may be the effect or the level left
# T2 sequence (whole entry): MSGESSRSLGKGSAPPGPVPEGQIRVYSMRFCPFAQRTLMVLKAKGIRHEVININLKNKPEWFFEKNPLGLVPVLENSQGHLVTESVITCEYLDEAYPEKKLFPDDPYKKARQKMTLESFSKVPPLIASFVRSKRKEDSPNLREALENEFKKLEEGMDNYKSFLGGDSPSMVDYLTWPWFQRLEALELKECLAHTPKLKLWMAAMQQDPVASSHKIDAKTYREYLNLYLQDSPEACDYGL
# [5] = biological target: T3, Glutathione S-transferase omega-1 (Homo sapiens) (UniProt P78417)
# T3 sequence (whole entry): T1 sequence (P78417 whole entry)
# Description: Inhibition of recombinant GSTO1-1 (unknown origin) expressed in Escherichia coli assessed as Kinact using S-(4-nitrophenacyl)glutathione as substrate preincubated for 1 to 6 mins followed by substrate addition by spectrophotmetric analysis
# [6] = Cmax in Swiss mouse at 30 […], ip measured at 5 mins post dose by UPLC-MS analysis; format: ADME, organism-based; set-up: route intraperitoneal; conditions: in vivo
# [7] = Half life in Swiss mouse at 30 mg/kg, ip after 0.083 to 24 hrs by UPLC-MS analysis; format: ADME, organism-based; conditions: in vivo
# [8] = Drug concentration in Swiss mouse plasma at 30 mg/kg, ip measured at 1 hr post dose by UPLC-MS analysis; format: ADME, organism-based
# [9] = Drug level in Swiss mouse plasma at 30 mg/kg, ip after 5 mins by UPLC-MS analysis; format: ADME, organism-based
# [10] = Stability in mouse liver microsomes assessed as drug degradation at 1 uM incubated for 60 mins in absence of NADPH by UPLC-MS analysis; format: ADME, Microsome; conditions: 1 h
# [11] = Half life in human liver microsomes at 1 uM incubated for 60 mins in presence of NADPH by UPLC-MS analysis; format: ADME, Microsome
# [12] = Kinetic solubility of compound in pH 7.4 phosphate buffer solution after 30 mins by nephelometry; format: physicochemical; conditions: read-out: Kinetic_solubility
# [13] = Kinetic solubility of compound in water after 30 mins by nephelometry; format: physicochemical; conditions: read-out: Kinetic_solubility
# [14] = Half life in mouse liver microsomes at 1 uM incubated for 60 mins in presence of NADPH by UPLC-MS analysis; format: ADME, Microsome
# [15] = Stability in human liver microsomes assessed as drug degradation at 1 uM incubated for 60 mins in absence of NADPH by UPLC-MS analysis; format: ADME, Microsome; conditions: 1 h
# [16] = Drug concentration in Swiss mouse plasma at 30 mg/kg, ip measured up to 2 hrs post dose by UPLC-MS analysis; format: ADME, organism-based
Compound,IC50 [1] [µM],Activity [4] [%],other results
CN(C)S(=O)(=O)c1cc(NC(=O)CCl)ccc1OC(F)(F)F,0.21,–,–
CN(C)S(=O)(=O)c1cc(CCS(=O)(=O)F)ccc1Cl,> 10,–,–
O=C(CCl)Nc1ccc(C(F)(F)F)c(S(=O)(=O)N2CCOCC2)c1,0.25,3.4,concentration at 4 h [2]: 6.5 nM; Ki [3]: 0.61 µM; Kinact [5]: 0.85 min⁻¹; Cmax [6]: 6370 nM; half-life [7]: 84 min
CN(C)S(=O)(=O)c1cc(NC(=O)CCl)ccc1Br,0.15,–,–
CN(C)S(=O)(=O)c1cc(NC(=O)CC#N)ccc1Cl,> 100,–,–
O=C(CCl)Nc1ccc(Cl)c(S(=O)(=O)N2CCOCC2)c1,0.16,24.3,concentration at 1 h [8]: 7.1 nM; concentration at 5 min [9]: 3870 nM; Ki [3]: 6.7 µM; Kinact [5]: 8.1 min⁻¹
CN(C)S(=O)(=O)c1cc(CC2CO2)ccc1Cl (stereo not given),> 100,–,–
C/C=C/C(=O)Nc1ccc(Cl)c(S(=O)(=O)N(C)C)c1,> 100,–,–
CN(C)S(=O)(=O)c1cc(NC(=O)C(N)=O)ccc1Cl,> 1000,–,–
CC(Cl)C(=O)Nc1ccc(Cl)c(S(=O)(=O)N(C)C)c1 (stereo not given),> 10,–,–
CC(=O)C(=O)Nc1ccc(Cl)c(S(=O)(=O)N(C)C)c1,> 10,–,–
CN(C)S(=O)(=O)c1cc(CS(=O)(=O)F)ccc1Cl,0.8,39.8,Ki [3]: 9.6 µM; Kinact [5]: 2.3 min⁻¹
CN(C)S(=O)(=O)c1cc(NC(=O)CCl)ccc1-c1ccccc1,0.71,–,–
C=CC(=O)Nc1ccc(Cl)c(S(=O)(=O)N(C)C)c1,–,92.8,–
CN(C)S(=O)(=O)c1cc(C2CO2)ccc1Cl (stereo not given),1.2,43.7,Ki [3]: 5 µM; Kinact [5]: 0.47 min⁻¹
CN(C)S(=O)(=O)c1cc(/C=C/S(=O)(=O)F)ccc1Cl,> 10,–,–
CN(C)S(=O)(=O)c1cc(NC(=O)CF)ccc1Cl,> 100,–,–
CN(C)S(=O)(=O)c1cc(NC(=O)CCl)ccc1C(F)(F)F,0.06,27.5,concentration at 5 min [9]: 11600 nM; Ki [3]: 1.2 µM; concentration at 2 h [16]: 1.5 nM; Kinact [5]: 1.1 min⁻¹
CN(C)S(=O)(=O)c1cc(NCC#N)ccc1Cl,> 100,–,–
CN(C)S(=O)(=O)c1cc(CCCS(=O)(=O)F)ccc1Cl,3.2,–,–
CN(C)S(=O)(=O)c1cc(NC(=O)CCl)ccc1I,0.13,–,–
CN(C)S(=O)(=O)c1cc(NC(=O)CCCl)ccc1Cl,> 10,–,–

# More lines, main results first:
IC50 [1] [µM],Activity [4] [%],Compound,other results
0.16,41.5,COCCCN(C)S(=O)(=O)c1cc(NC(=O)CCl)ccc1Cl,–
0.18,–,CN(CCO)S(=O)(=O)c1cc(NC(=O)CCl)ccc1Cl,–
0.58,–,CNS(=O)(=O)c1cc(NC(=O)CCl)ccc1Cl,–
0.11,–,COCCCNS(=O)(=O)c1cc(NC(=O)CCl)ccc1Cl,Ki [3]: 9.9 µM; Kinact [5]: 1.3 min⁻¹
0.2,–,O=C(CCl)Nc1ccc(Cl)c(S(=O)(=O)NCC2CCCO2)c1 (stereo not given),–
–,66.8,CN(C)S(=O)(=O)c1cc(NC(=O)CCl)ccc1Cl,Stability [10]: Unstable; half-life at 1 µM [11]: < 2 min; concentration at 1 h [8]: 32.1 nM; solubility kinetic at 0.5 h [12]: 50 to 100 µg/mL; solubility kinetic at 0.5 h [13]: 50 to 100 µg/mL; half-life at 1 µM [14]: 7 min; Stability [15]: Unstable; Cmax [6]: 9380 nM
0.7,–,O=C(CCl)Nc1ccc(Cl)c(S(=O)(=O)NCCO)c1,–
0.03,47.8,COCCNS(=O)(=O)c1cc(NC(=O)CCl)ccc1Cl,Ki [3]: 2.5 µM; Kinact [5]: 0.8 min⁻¹
0.07,36,CC(C)NS(=O)(=O)c1cc(NC(=O)CCl)ccc1Cl,Ki [3]: 4.8 µM; Kinact [5]: 3 min⁻¹
0.34,–,O=C(CCl)Nc1ccc(Cl)c(S(=O)(=O)NC2CCOC2)c1 (stereo not given),–
0.08,61.3,COCCN(C)S(=O)(=O)c1cc(NC(=O)CCl)ccc1Cl,Ki [3]: 6.9 µM; Kinact [5]: 0.61 min⁻¹
